Measured values taken from patent publication US20180344702A1, “METHODS FOR TREATING PATIENTS WITH HEMATOLOGIC MALIGNANCIES” (Aptose Biosciences, Inc., priority 2017, published 2018).

Columns and labels:
[1] = target: T1, BTK (E41K) (Homo sapiens, UniProt Q06187, E41K); experiment: Inhibition of BTK, kinase IC50; format: biochemical
T1 construct: RBC (only as the name of the general kinase protocol)
Experimental: (§1) RBC HotSpot Kinase Assay Protocol:
(§2) Reagents used: Base Reaction buffer; 20 mM Hepes (pH 7.5), 10 mM MgCl2, 1 mM EGTA, 0.02% Brij35, 0.02 mg/ml BSA, 0.1 mM Na3VO4, 2 mM DTT, 1% DMSO. Required cofactors are added individually to each kinase reaction.
(§3) Compound 7 was dissolved in 100% DMSO to a specified concentration. The serial dilution was conducted by epMotion 5070 in DMSO. The substrate was freshly prepared in Reaction Buffer and any required cofactors to the substrate solution were added. The kinase was added to the solution and gently mixed. Compound 7 was added in 100% DMSO into the kinase reaction mixture by Acoustic technology (Echo550; nanoliter range), and incubated for 20 min at room temperature. ^33P-ATP (Specific activity 10 μCi/μl) was added into the reaction mixture to initiate the reaction, which was incubated for 2 hours, whereupon kinase activity was detected by the filter-binding method.

[2] = target: T2, BTK (Homo sapiens, UniProt Q06187); experiment: Inhibition of BTK, kinase IC50; format: biochemical
T2 construct: RBC (only as the name of the general kinase protocol)
T2 sequence (Q06187 whole entry): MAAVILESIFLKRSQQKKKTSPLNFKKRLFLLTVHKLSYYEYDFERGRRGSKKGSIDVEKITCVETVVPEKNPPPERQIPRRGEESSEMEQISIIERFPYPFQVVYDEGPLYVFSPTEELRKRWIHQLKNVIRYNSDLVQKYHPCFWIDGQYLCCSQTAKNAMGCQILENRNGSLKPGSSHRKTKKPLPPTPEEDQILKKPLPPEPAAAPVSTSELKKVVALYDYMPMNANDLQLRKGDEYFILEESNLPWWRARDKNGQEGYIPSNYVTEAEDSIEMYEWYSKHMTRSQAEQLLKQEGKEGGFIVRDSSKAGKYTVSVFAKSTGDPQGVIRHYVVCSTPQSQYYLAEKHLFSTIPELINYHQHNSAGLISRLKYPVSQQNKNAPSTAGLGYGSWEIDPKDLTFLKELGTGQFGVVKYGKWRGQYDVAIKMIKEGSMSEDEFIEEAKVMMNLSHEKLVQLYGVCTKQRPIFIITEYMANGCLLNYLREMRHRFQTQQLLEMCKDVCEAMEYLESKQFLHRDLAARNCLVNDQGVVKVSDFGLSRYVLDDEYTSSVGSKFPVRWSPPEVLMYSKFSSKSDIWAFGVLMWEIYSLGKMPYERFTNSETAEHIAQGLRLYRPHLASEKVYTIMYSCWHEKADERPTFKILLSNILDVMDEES
Experimental: as §1, §2, §3

[3] = target: T3, BTK (P190K) (Homo sapiens, UniProt Q06187, P190K); experiment: Inhibition of BTK, kinase IC50; format: biochemical
T3 construct: RBC (only as the name of the general kinase protocol)
T3 sequence (Q06187 whole entry P190K): as the sequence (Q06187 whole entry) above, with P190K counted along it
Experimental: as §1, §2, §3

[4] = target: ITK (Homo sapiens, UniProt Q08881); experiment: Key off-targets (Table 8); format: biochemical
Sequence of ITK (Q08881 whole entry): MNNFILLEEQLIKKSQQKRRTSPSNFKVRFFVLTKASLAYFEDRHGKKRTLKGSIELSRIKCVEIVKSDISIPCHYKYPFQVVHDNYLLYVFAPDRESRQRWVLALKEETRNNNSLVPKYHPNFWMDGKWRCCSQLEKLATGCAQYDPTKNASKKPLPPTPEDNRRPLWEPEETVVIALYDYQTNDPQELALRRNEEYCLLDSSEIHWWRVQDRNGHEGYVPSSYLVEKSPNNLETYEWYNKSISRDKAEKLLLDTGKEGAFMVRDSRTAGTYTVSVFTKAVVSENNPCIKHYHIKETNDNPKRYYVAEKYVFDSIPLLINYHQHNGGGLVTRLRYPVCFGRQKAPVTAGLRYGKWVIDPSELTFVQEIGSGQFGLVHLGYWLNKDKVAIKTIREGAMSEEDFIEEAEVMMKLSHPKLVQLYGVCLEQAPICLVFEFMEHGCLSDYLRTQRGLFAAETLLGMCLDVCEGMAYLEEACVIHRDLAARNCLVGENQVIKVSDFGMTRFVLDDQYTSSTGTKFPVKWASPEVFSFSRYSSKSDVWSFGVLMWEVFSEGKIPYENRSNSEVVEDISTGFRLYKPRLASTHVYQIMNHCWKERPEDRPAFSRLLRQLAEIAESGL

[5] = test system: Daudi; experiment: Cytotoxicity, MTS cell viability; format: cell-based; settings: Homo sapiens, 72 h, Burkitt's, 3 days MTS
Experimental: (§4) Cells were seeded in a 96 well plate and treated with either vehicle (DMSO) or compound 7 at 10 different concentrations for 3 days at 37° C. and 5% CO2. Cell viability was assessed using CellTiter 96 AQueous one solution (MTS Promega Cat#G3581), and IC50 values calculated using GraphPad Prism 7 software.
(§5) Cytotoxicity procedure: Cells were seeded in 96-well plate and treated with vehicle DMSO or Compound 7 at a specified concentration and incubated for 72 hours.

[6] = test system: GRANTA-519; experiment: Cytotoxicity, MTS cell viability; format: cell-based; settings: Homo sapiens, 72 h, MCL, 3 days MTS
Experimental: as §4, §5

[7] = test system: Jeko-1; experiment: Cytotoxicity, MTS cell viability; format: cell-based; settings: Homo sapiens, 72 h, MCL, 3 days MTS
Experimental: as §4, §5

[8] = test system: K562; experiment: Cytotoxicity, MTS cell viability; format: cell-based; settings: Homo sapiens, 72 h, CML, 3 days MTS
Experimental: as §4, §5

[9] = test system: MEC-1; experiment: Cytotoxicity, MTS cell viability; format: cell-based; settings: CLL, 3 days MTS
Experimental: as §4, §5

[10] = test system: Mino; experiment: Cytotoxicity, MTS cell viability; format: cell-based; settings: Homo sapiens, 72 h, MCL, 3 days MTS
Experimental: as §4, §5

[11] = test system: RL; experiment: Cytotoxicity, MTS cell viability; format: cell-based; settings: Homo sapiens, 72 h, DLBCL / GCB-DLBCL, 3 days MTS
Experimental: as §4, §5

[12] = test system: RS411; experiment: Cytotoxicity, MTS cell viability; format: cell-based; settings: Homo sapiens, RS4-11, 72 h, ALL / B-ALL, 3 days MTS
Experimental: as §4, §5

[13] = test system: Raji; experiment: Cytotoxicity, MTS cell viability; format: cell-based; settings: Burkitt's, 3 days MTS
Experimental: as §4, §5

[14] = test system: Ramos; experiment: Cytotoxicity, MTS cell viability; format: cell-based; settings: Homo sapiens, 72 h, Burkitt's, 3 days MTS
Experimental: as §4, §5

[15] = test system: SU-DHL6; experiment: Cytotoxicity, MTS cell viability; format: cell-based; settings: Homo sapiens, SU-DHL-6, 72 h, DLBCL / GCB-DLBCL, 3 days MTS
Experimental: as §4, §5

[16] = test system: Ba/F3-ITD + 691 (ITD + F691L); experiment: Antiproliferative activity (Table 6); format: cell-based, Murin; settings: 72 h
[17] = test system: BTK pathway in MV4-11 cells; experiment: Western blot analysis in MV4-11 cells; format: cell-based, human; settings: 0.5, 5.0, and 50 nM, FIG. 2
Experimental: (§6) Immunoblot assays: Cells were treated with Compound 7 at various concentrations and collected for cell lysates. The total and phosphorylated levels of the indicated proteins were determined by Western Blot.

[18] = test system: FLT3 pathway in MV4-11 cells; experiment: Western blot analysis in MV4-11 cells; format: cell-based, human; settings: FIG. 1
Experimental: as §6

[19] = test system: human cells (e.g., FLTs-ITD-mutated leukemia cells MV4-11); experiment: Mouse xenograft model, tumor volume; format: in vivo, mice; settings: several doses over a 22-day period, vs control or Ibrutinib
Experimental: Animal Study: Balb/c mice were injected (SQ) with human cells (e.g., FLTs-ITD-mutated leukemia cells MV4-11), and treated orally (q.d.) with the indicated doses of Compound 7 for 14 days. The effect (e.g., anti-leukemia) was assessed by measuring tumor burden. Oral toxicity was evaluated, for example, by measuring body weight. Compound 7 concentrations in plasma were measured at the indicated time points after dosing at the first day.

[20] = test system: MV411 cells; experiment: Cell-cycle analysis (EdU/PI flow cytometry); format: cell-based, human; settings: dose-dependent
Experimental: (§7) Cell-cycle analysis: Cells were treated with vehicle, DMSO or Compound 7 and were stained with PI and EdU, and then analyzed by flow cytometry to determine the phases of cell cycle.

[21] = test system: Aurora kinase in FLT3 WT cells (KG-1); experiment: Cell signaling Western blot; format: cell-based; settings: KG-1 cells, FIGS. 25A-25B
Experimental: as §6

[22] = test system: PDGFRA and FLT3 (WT) signaling in EOL-1 cells; experiment: Cell signaling Western blot; format: cell-based
Experimental: as §6

[23] = test system: Mino, RAMOS, GRANTA-519 and SU-DHL-6 cells; experiment: Cell cycle progression in B-cell malignant cell lines (EdU/PI, FACS); format: cell-based; settings: FIGS. 27, 28
Experimental: The data presented in FIGS. 27A-27D and FIGS. 28A-28D were generated using well-known protocols for measuring cell cycle progression (e.g., EdU and/or PI staining followed by FACS analysis using the BD Accuri C6 flow), and is readily apparent to a skilled artisan.
as §7

[24] = target: FLT3(ITD) (Homo sapiens, UniProt P36888); experiment: Binding constant (Kd), competition binding with qPCR readout; parameters: other: FLT3(ITD); kinase-tagged T7 phage strains were prepared in an E. coli host derived from the BL21 strain; fused on or other part: T7 phage fusion or DNA tag for qPCR detection

T1 sequence (Q06187 whole entry E41K): as the sequence (Q06187 whole entry) above, with E41K counted along it

Cc1cnc(-c2ccc(-c3ccc(NC(=O)Nc4c(F)cc(F)cc4F)cc3F)c3c2C(=O)NC3)[nH]1 [Compound 7, 1-{3-fluoro-4-[7-(5-methyl-1H-imidazol-2-yl)-1-oxo-2,3-dihydro-1H-isoindol-4-yl]-phenyl}-3-(2,4,6-trifluorophenyl)urea]
IC50 [1]: 0.0145 µM | IC50 [2]: 0.00842 µM | IC50 [3]: 0.00659 µM | IC50 [4]: 0.0043 µM | IC50 [5]: 0.166 µM | IC50 [6]: 0.0136 µM | IC50 [7]: 0.0738 µM | IC50 [8]: 12.9 µM | IC50 [9]: 3.8 µM | IC50 ([9]; Homo sapiens, MEC1, 72 h): 3.8 µM | IC50 [10]: 0.00598 µM | IC50 [11]: 0.426 µM | IC50 [12]: 0.00151 µM | IC50 [13]: 2.03 µM | IC50 ([13]; Homo sapiens, 72 h): 2.03 µM | IC50 [14]: 0.0184 µM | IC50 [15]: 0.122 µM | IC50 [16]: 0.00043 µM | Inhibition of BTK pathway (Western blot) [17]: inhibits BTK pathway | Inhibition of FLT3 pathway (Western blot) [18]: inhibits FLT3 pathway | Tumor volume [19]: reduces tumor volume with increased dose | G0/G1 cell-cycle arrest [20]: induce G0/G1 cell-cycle arrest | Aurora kinase activity and signaling (Western blot) [21]: inhibits Aurora kinase activity and signaling | PDGFRA and FLT3 (WT) signaling (Western blot) [22]: inhibits PDGFRA and FLT3 (WT) signaling | Cell cycle progression [23]: interferes with cell cycle progression | Kd [24]: 0.0031 µM
